Results reported in patent US20130310379A1, “MODULATORS OF METHYL MODIFYING ENZYMES, COMPOSITIONS AND USES THEREOF” (CONSTELLATION PHARMACEUTICALS, priority 2010, published 2013).

Biological target: EZH2 (Homo sapiens, UniProt Q15910)
Assay: EZH2 assay: rPRC2 with biotinylated oligonucleosome substrates and 3H SAM, FlashPlate scintillation counting, IC50
Format: biochemical
Details: rPRC2, biotinylated oligonucleosome substrates, 3H SAM; read-out: EZH2 IC50
Outline: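 rPRC2 (2 nM EZH2) pre-incubated 20 min with compound (80 to 0.16 uM, ten 2-fold steps), then 60 min reaction with 0.2 uM 3H SAM, 0.2 uM biotinylated oligonucleosomes, 3.6 uM H3K27me3 peptide in Tris pH 8.5. SAH/EDTA quench; 4-parameter IC50 fit.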

EZH2, sequence (Q15910 whole entry): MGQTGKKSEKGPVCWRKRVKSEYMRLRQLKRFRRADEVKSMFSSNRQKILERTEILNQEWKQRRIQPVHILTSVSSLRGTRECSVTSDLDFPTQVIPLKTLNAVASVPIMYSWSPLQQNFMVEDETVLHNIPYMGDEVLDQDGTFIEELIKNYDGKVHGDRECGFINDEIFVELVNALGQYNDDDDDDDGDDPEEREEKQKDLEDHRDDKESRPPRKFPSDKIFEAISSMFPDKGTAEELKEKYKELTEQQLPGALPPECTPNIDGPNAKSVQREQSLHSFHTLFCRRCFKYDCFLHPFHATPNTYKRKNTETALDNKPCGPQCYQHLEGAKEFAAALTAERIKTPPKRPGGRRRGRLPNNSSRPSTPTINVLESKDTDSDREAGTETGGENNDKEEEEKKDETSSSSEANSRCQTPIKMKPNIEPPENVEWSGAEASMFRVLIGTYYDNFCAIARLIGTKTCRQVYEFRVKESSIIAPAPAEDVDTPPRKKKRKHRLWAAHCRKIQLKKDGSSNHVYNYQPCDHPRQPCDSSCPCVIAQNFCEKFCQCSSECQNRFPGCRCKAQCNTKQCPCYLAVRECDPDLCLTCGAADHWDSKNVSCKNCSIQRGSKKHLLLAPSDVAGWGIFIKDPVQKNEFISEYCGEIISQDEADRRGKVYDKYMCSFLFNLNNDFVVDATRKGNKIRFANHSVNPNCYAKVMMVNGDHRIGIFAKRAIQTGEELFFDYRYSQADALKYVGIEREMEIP
EZH2, sequence (O75530 whole entry partner): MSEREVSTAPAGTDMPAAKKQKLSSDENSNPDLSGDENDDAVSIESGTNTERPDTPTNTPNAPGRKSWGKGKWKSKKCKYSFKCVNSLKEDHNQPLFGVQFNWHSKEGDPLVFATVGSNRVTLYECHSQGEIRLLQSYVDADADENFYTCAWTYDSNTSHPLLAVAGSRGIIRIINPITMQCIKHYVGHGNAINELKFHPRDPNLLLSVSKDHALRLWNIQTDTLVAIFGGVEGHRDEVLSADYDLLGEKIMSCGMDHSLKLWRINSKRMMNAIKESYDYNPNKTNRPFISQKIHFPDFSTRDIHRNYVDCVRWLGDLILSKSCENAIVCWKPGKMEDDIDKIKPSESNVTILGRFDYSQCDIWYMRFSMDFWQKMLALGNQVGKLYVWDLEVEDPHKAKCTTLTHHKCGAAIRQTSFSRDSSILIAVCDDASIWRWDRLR
EZH2, sequence (Q15022 whole entry partner): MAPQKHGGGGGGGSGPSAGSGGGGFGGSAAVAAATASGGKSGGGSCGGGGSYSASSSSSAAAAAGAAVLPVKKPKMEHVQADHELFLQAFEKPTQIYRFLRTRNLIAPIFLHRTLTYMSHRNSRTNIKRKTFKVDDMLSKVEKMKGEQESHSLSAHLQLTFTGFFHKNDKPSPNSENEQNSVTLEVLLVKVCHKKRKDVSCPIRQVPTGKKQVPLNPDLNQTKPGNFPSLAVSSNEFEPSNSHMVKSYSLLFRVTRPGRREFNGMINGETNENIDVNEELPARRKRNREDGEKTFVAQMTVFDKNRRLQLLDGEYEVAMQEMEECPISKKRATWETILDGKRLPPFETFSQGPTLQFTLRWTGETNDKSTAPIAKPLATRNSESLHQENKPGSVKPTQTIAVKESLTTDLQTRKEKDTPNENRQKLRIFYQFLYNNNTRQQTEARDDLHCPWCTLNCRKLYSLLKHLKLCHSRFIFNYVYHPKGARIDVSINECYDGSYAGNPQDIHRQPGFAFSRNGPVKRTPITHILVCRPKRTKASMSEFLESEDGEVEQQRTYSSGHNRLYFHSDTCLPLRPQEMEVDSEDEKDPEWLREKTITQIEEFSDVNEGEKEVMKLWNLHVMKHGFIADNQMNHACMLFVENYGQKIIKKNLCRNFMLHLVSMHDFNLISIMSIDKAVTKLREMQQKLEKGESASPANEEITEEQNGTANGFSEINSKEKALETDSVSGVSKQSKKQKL

IC50 [µM]	SMILES
> 80	CC1(C)CC(NC(=O)c2ccc(Oc3ccccc3C(=O)N3CCCC3)c(Cl)c2)CC(C)(C)N1 [Compound I-233]
20 to 80	Cc1cc(C(=O)NC2CC(C)(C)NC(C)(C)C2)cc(C)c1Oc1ccccc1C#N [Compound I-335]
20 to 80	CC1(C)CC(NC(=O)c2ccc(COc3cccc(-c4cncc(C#N)c4)c3)cc2)CC(C)(C)N1 [Compound I-33]
5 to 20	Cc1ccccc1Oc1ccc(C(=O)NC2CC(C)(C)NC(C)(C)C2)cc1Cl [Compound I-325]
5 to 20	CC1(C)CC(NC(=O)c2ccc(COc3cccc(Br)c3)cc2)CC(C)(C)N1 [Compound I-8]
20 to 80	CC1(C)CC(NC(=O)c2ccc(Oc3ccccc3C(=O)Nc3ccccc3)c(Cl)c2)CC(C)(C)N1 [Compound I-272]
> 80	CC1(C)CC(NC(=O)c2ccc(COc3ccccc3C#N)cc2)CC(C)(C)N1 [Compound I-240]
< 5	Cc1cc(C(=O)NC2CC(C)(C)NC(C)(C)C2)ccc1Oc1cccc(-c2cccnc2)c1C#N [Compound I-261]
20 to 80	N#Cc1c(Oc2ccc(C(=O)NC3CCN(CCO)CC3)cc2Cl)cccc1-c1ccnnc1 [Compound I-474]
> 80	Cc1ccc(Oc2ccc(C(=O)NC3CC(C)(C)NC(C)(C)C3)cc2)cc1 [Compound I-92]
20 to 80	CC1(C)CC(NC(=O)c2ccc(Oc3ccccc3CN)cc2)CC(C)(C)N1 [Compound I-273]
< 5	CC1(C)CC(NC(=O)c2ccc(Oc3ccccc3OCc3ccccc3)cc2)CC(C)(C)N1 [Compound I-152]
< 5	CC1(C)CC(NC(=O)c2ccc(Oc3cccc(-c4ncccn4)c3C#N)c(Cl)c2)CC(C)(C)N1 [Compound I-445]
< 5	COC(C)c1cccc(Oc2ccc(C(=O)NC3CC(C)(C)NC(C)(C)C3)cc2Cl)c1C#N (centres unmarked) [Compound I-420]
> 80	O=C(N[C@H]1CCN(Cc2ccccc2)C1)c1ccc(Oc2ccccc2)cc1 [Compound I-100]
20 to 80	COC(=O)c1cccc(COc2ccc(C(=O)NC3CC(C)(C)NC(C)(C)C3)cc2)c1 [Compound I-53]
> 80	CC1(C)CC(NC(=O)c2ccc(Oc3ccc(Cl)cc3)cc2)CC(C)(C)N1 [Compound I-91]
> 80	CC1(C)CC(NC(=O)N2CCC(Oc3ccccc3C#N)CC2)CC(C)(C)N1 [Compound I-442]
> 80	CC(Oc1ccccc1)c1ccc(C(=O)NC2CC(C)(C)NC(C)(C)C2)cc1 (centres unmarked) [Compound I-118, 4-(1-phenoxyethyl)-N-(2,2,6,6-tetramethylpiperidin-4-yl)benzamide]
5 to 20	CC1(C)CC(NC(=O)c2ccc(Oc3ccccc3OCc3ccncc3)cc2)CC(C)(C)N1 [Compound I-209]
20 to 80	Cc1noc(C)c1-c1cc(C(=O)NC2CC(C)(C)NC(C)(C)C2)ccc1Oc1ccccc1C#N [Compound I-214]
5 to 20	CC1(C)CC(NC(=O)c2ccc(Oc3ccccc3C3CCCCC3)c(Cl)c2)CC(C)(C)N1 [Compound I-195]
> 80	CC1(C)CC(NC(=O)c2ccc(N3CCOc4ccccc43)cc2)CC(C)(C)N1 [Compound I-440]
> 80	Cc1ccccc1OCc1ccc(C(=O)NC2CC(C)(C)NC(C)(C)C2)cc1 [Compound I-74]
< 5	CC1(C)CC(NC(=O)c2ccc(Oc3cncc(-c4ccncc4)c3C#N)c(Cl)c2)CC(C)(C)N1 [Compound I-520]

IC50 [µM]	SMILES
< 5	CC1(C)CC(NC(=O)c2ccc(Oc3ccccc3C#N)c(Cc3ccccc3)c2)CC(C)(C)N1 [Compound I-201]
20 to 80	CC1(C)CC(NC(=O)c2ccc(Oc3ccccc3N3CCOCC3)cc2)CC(C)(C)N1 [Compound I-44]
> 80	Cc1ccc(Oc2ccc(C(=O)NC3CC(C)(C)NC(C)(C)C3)cc2)c(C#N)c1 [Compound I-156]
> 80	CC1(C)CC(NC(=O)N2CCC(Oc3ccccc3)C2)CC(C)(C)N1 (centres unmarked) [Compound I-466]
20 to 80	CC(O)c1ccccc1Oc1ccc(C(=O)NC2CC(C)(C)NC(C)(C)C2)cc1 (centres unmarked) [Compound I-287]
< 5	CC1(C)CC(NC(=O)c2ccc(Oc3cccc(-c4ccc(C#N)nc4)c3C#N)c(Cl)c2)CC(C)(C)N1 [Compound I-526]
20 to 80	CC1(C)CC(NC(=O)c2ccc(N3CCOc4ccccc43)c(Cl)c2)CC(C)(C)N1 [Compound I-384]
< 5	Cn1cc(-c2cccc(Oc3ccc(C(=O)NC4CC(C)(C)NC(C)(C)C4)cc3Cl)c2C#N)ccc1=O [Compound I-476]
20 to 80	CC1(C)CC(NC(=O)c2ccc(SC3CCCCC3)cc2)CC(C)(C)N1 [Compound I-145]
20 to 80	CC1(C)CC(NC(=O)c2ccc(-n3ccc4cc(O)ccc43)c(Cl)c2)CC(C)(C)N1 [Compound I-494]
< 5	CC1(C)CC(NC(=O)c2ccc(Oc3cccc(CCC(=O)N4CCCC4)c3C#N)c(Cl)c2)CC(C)(C)N1 [Compound I-553]
< 5	Cc1cc(C(=O)NC2CC(C)(C)NC(C)(C)C2)ccc1Oc1cccc(C(C)C)c1C#N [Compound I-267]
< 5	CC1(C)CC(NC(=O)c2ccc(Oc3cccc(C4CCOC4)c3C#N)c(Cl)c2)CC(C)(C)N1 (centres unmarked) [Compound I-530]
20 to 80	CC1(C)CC(NC(=O)c2ccc(Oc3ccncc3)c(Br)c2)CC(C)(C)N1 [Compound I-318]
< 5	CC1(C)CC(NC(=O)c2ccc(Oc3ccccc3C#N)c(C#N)c2)CC(C)(C)N1 [Compound I-264]
> 80	CC1(C)CC(NC(=O)c2ccc(COc3cccc(C#N)c3)cc2)CC(C)(C)N1 [Compound I-76]
< 5	CN(C)c1ccc(-c2cccc(Oc3ccc(C(=O)NC4CC(C)(C)NC(C)(C)C4)cc3Cl)c2C#N)cn1 [Compound I-557]
> 80	Cc1ccc(Oc2ccc(C(=O)NC3CC(C)(C)NC(C)(C)C3)cc2)cn1 [Compound I-89]
> 80	CN1CCC(N(C)C(=O)c2ccc(Oc3ccccc3)cc2)CC1 [Compound I-72]
< 5	CC1(C)CC(NC(=O)c2ccc(Oc3cccc(-c4ccnnc4)c3C#N)c(Cl)c2)CC(c2ccccc2)N1 (centres unmarked) [Compound I-477]
< 5	CNC(=O)CCc1cccc(Oc2ccc(C(=O)NC3CC(C)(C)NC(C)(C)C3)cc2Cl)c1C#N [Compound I-551]
5 to 20	CC1(C)CC(NC(=O)c2ccc(Oc3cccc4cccnc34)c(Cl)c2)CC(C)(C)N1 [Compound I-346]
< 5	CC(O)c1cccc(Oc2ccc(C(=O)NC3CC(C)(C)NC(C)(C)C3)cc2Cl)c1Br (centres unmarked) [Compound I-399]
20 to 80	CC1(C)CC(NC(=O)c2ccc(COc3cccc(-c4cccc(O)c4)c3)cc2)CC(C)(C)N1 [Compound I-30]
< 5	CC1(C)CC(NC(=O)c2ccc(Oc3cccc(-c4ccn[nH]4)c3C#N)c(Cl)c2)CC(C)(C)N1 [Compound I-338]

IC50 [µM]	SMILES
< 5	CC1(C)CC(NC(=O)c2ccc(Oc3ccccc3C#N)c(Cl)c2)CC(C)(C)N1CCO [Compound I-459]
20 to 80	CC1(C)CC(NC(=O)c2ccc(Oc3ccccc3)cc2)CC(C)(C)N1 [Compound I-52]
< 5	CC1CC(NC(=O)c2ccc(Oc3cccc(-c4ccnnc4)c3C#N)c(Cl)c2)CC(C)N1 (centres unmarked) [Compound I-472]
20 to 80	CC1(C)CC(NC(=O)c2ccc(Oc3ccccc3C#N)c(Cl)c2)CC(c2ccccc2)N1 (centres unmarked) [Compound I-409]
> 80	CN1CCC(NC(=O)c2ccc(Oc3ccccc3)cc2)CC1 [Compound I-113]
< 5	CC1(C)CC(NC(=O)c2ccc(Oc3ccccc3-c3ccncc3)c(Cl)c2)CC(C)(C)N1 [Compound I-226]
20 to 80	CN(C)C(=O)c1ccccc1Oc1ccc(C(=O)NC2CC(C)(C)NC(C)(C)C2)cc1Cl [Compound I-246]
< 5	CC(C)c1cc(C(=O)NC2CC(C)(C)NC(C)(C)C2)ccc1Oc1ccccc1C#N [Compound I-237]
> 80	COc1ccc(Oc2ccc(C(=O)NC3CC(C)(C)NC(C)(C)C3)cc2)c(C(=O)O)c1 [Compound I-120, 2-(4-(2,2,6,6-tetramethylpiperidin-4-ylcarbamoyl)phenoxy)-5-methoxy benzoic acid]
5 to 20	C#Cc1ccccc1Oc1ccc(C(=O)NC2CC(C)(C)NC(C)(C)C2)cc1 [Compound I-224]
20 to 80	CC1(C)CC(NC(=O)c2ccc(Oc3cccc4c[nH]c(=O)cc34)cc2)CC(C)(C)N1 [Compound I-370]
> 80	CC1(C)CC(C(=O)Nc2ccc(Oc3ccccc3)cc2)CC(C)(C)N1 [Compound I-192]
20 to 80	CC1(C)CC(NC(=O)c2ccc(Oc3cccc(Br)c3)cc2)CC(C)(C)N1 [Compound I-180]
> 80	CC1(C)CC(NC(=O)c2ccc3c(c2)Cc2ccccc2O3)CC(C)(C)N1 [Compound I-412]
5 to 20	Cc1cc(C(=O)NC2CC(C)(C)NC(C)(C)C2)ccc1Oc1ccccc1C(C)C [Compound I-332]
20 to 80	COc1ccc(-c2cccc(OCc3ccc(C(=O)NC4CC(C)(C)NC(C)(C)C4)cc3)c2)cn1 [Compound I-41]
> 80	Cn1cncc1COc1ccc(C(=O)NC2CC(C)(C)NC(C)(C)C2)cc1Cl [Compound I-390]
5 to 20	CC1(C)CC(NC(=O)c2ccc(Oc3cccc(CN4CCCCC4)c3)cc2)CC(C)(C)N1 [Compound I-169]
> 80	CC1(C)CC(NC(=O)c2ccc(COc3ccnc4ccccc34)cc2)CC(C)(C)N1 [Compound I-128]
> 80	CC1(C)CC(NC(=O)c2ccc(COc3cccc(N4CCOCC4)c3)cc2)CC(C)(C)N1 [Compound I-164]
20 to 80	CC1(C)CC(NC(=O)c2ccc(Oc3c(Cl)cccc3C#N)cc2)CC(C)(C)N1 [Compound I-244]
> 80	CNCc1ccccc1Oc1ccc(C(=O)NC2CC(C)(C)NC(C)(C)C2)cc1 [Compound I-274]
> 80	CN(c1ccccc1)c1ccc(C(=O)NC2CC(C)(C)NC(C)(C)C2)cc1 [Compound I-108, 4-(Methyl(phenyl)amino)-N-(2,2,6,6-tetramethylpiperidin-4-yl)benzamide]
> 80	CC(C)Oc1ccc(C(=O)NC2CC(C)(C)NC(C)(C)C2)cc1 [Compound I-136]
